Patent publication EP4653451A1, “POLYPEPTIDE COMPOUND AND USE THEREOF” (Chengdu New Radiomedicine Technology Co., Ltd., priority 2023, dated 2024)
Structures can show the parent of a compound that is named as a salt. Where two headings read alike, the source gives them in different places. Numbered stars: 1 amine (or outer) side, 2 acyl side, 3 side chain; on linkers, the order of the positions; unused ones are H or OH. Bridge positions count the residues as written; N and C are the ends. Square brackets hold non-standard residues; d marks the D form. Peptide text beside a SMILES is read from it. * marks the point of attachment. TBMB(SCH2CH2NH-DOTA) = O=C(O)CN1CCN(CC(=O)O)CCN(CC(=O)NCCSCc2cc(C[*:1])cc(C[*:2])c2)CCN(CC(=O)O)CC1; 1Nal = N[C@@H](Cc1cccc2ccccc12)C(=O)O; mXylylene = c1cc(C[*:1])cc(C[*:2])c1; Cha = N[C@@H](CC1CCCCC1)C(=O)O; NH(4-picolyl) = c1cc(CN*)ccn1; β3hC = N[C@@H](CS)CC(=O)O; Nle = CCCC[C@H](N)C(=O)O; Hexanoyl = CCCCCC(=O)*; NHcPent = C1CCC(N*)C1; NHPh = c1ccc(N*)cc1; NHPentyl = CCCCCN*; X2 = C1CCC(CN*)C1

Experiments:
[1] = target: T1, human recombinant FAP protein (Homo sapiens, UniProt Q12884); assay: Inhibitory activity against FAP protease activity (Z-Gly-Pro-AMC fluorescence); assay type: biochemical
T1 construct: purchased Acrobiosystems FAP-H82Q6
T1 sequence (Q12884 1-760): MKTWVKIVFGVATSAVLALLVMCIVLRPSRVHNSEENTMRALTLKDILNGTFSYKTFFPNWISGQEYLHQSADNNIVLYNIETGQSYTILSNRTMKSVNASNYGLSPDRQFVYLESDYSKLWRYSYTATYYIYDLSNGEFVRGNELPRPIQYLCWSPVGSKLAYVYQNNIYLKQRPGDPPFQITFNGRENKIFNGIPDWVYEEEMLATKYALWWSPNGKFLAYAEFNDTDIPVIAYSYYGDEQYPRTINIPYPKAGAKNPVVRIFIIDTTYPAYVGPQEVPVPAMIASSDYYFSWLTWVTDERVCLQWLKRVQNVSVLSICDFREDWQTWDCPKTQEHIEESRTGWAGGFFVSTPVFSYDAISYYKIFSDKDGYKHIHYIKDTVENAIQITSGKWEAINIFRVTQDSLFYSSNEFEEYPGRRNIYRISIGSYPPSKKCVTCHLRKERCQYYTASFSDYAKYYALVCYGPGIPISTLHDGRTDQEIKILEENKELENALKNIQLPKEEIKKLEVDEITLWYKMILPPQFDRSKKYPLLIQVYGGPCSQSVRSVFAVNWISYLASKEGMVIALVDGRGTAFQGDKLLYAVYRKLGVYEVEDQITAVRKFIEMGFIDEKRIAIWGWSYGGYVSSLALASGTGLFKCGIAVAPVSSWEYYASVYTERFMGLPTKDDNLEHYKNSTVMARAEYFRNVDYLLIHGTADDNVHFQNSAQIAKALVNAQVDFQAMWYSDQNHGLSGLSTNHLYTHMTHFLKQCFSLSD
Procedure: The human recombinant FAP protein (Acrobiosystems, FAP-H82Q6) was diluted to a 125 pM FAP working solution with an assay buffer (50 mM Tris-HCl, 1 M NaCl, 1 mg/mL BSA, pH 7.5), and the FAP substrate (Z-Gly-Pro-AMC (LEONBIO, 68542-93-8)) was diluted to a 150 µM substrate working solution with the assay buffer. 40 µl of FAP working solution and 20 µl of compounds at different concentrations (4-fold dilution) were taken, then 40 µl of substrate working solution was added, and the mixture was uniformly mixed on a shaker at room temperature for 1 min. The uniformly mixed mixture was reacted at room temperature in the dark for 90 min. The fluorescence value Ex = 380 nm/Em = 460 nm was read by using a microplate reader. The original data was saved, and the IC50 value of the compound was obtained by using the original data or the Inhibition% via calculation and analyzing the data with Graphpad PRISM.

[2] = target: T2, human recombinant DPP4 protein (Homo sapiens, UniProt P27487); assay: Inhibitory activity against DPP4 protease activity (H-Gly-Pro-AMC fluorescence); assay type: biochemical; details: 125 pM DPP4 working solution, 90 min at room temperature
T2 construct: purchased Acrobiosystems DP4-H5211
Procedure: The human recombinant DPP4 protein (Acrobiosystems, DP4-H5211) was formulated into a 125 pM working solution with an assay buffer (20 mM Tris-HCl, 100 mM NaCl), and the DPP4 substrate (H-Gly-Pro-AMC.HBr (LEONBIO, 115035-46-6)) was diluted to a 250 µM DPP4 substrate working solution with the assay buffer. 40 µl of DPP4 working solution and 20 µl of compounds at different concentrations (4-fold dilution) were taken, then 40 µl of DPP4 substrate working solution was added, and the mixture was uniformly mixed on a shaker at room temperature for 1 min. The uniformly mixed mixture was reacted at room temperature in the dark for 90 min. Reading was made by microplate reader at excitation and emission wavelengths of 380 nm and 460 nm. The original data was saved, and the IC50 value of the compound was obtained by analyzing the data with Graphpad PRISM.

[3] = Pharmacokinetics after tail vein injection; assay type: in vivo, CD-1 mice; details: male, CD-1, mouse, in vivo, iv, 0.2 mg/kg
Procedure: Male CD-1 mice weighing 30-35 g were selected, and a test compound was injected into the tail vein at 0.2 mg/kg. Plasma samples were collected at 5, 15, 30, and 60 min and 2, 4, 8, and 24 h after administration and processed accordingly. The drug content was analyzed by LC-MS/MS.
Among them, compounds 20, 21 and 22 were compounds formed by chelating nonradioactive in with compounds 11, 14 and 16, respectively.

[4] = 125 pM FAP working solution, 90 min at room temperature, read-out: FAP IC50

T2 sequence (P27487 whole entry): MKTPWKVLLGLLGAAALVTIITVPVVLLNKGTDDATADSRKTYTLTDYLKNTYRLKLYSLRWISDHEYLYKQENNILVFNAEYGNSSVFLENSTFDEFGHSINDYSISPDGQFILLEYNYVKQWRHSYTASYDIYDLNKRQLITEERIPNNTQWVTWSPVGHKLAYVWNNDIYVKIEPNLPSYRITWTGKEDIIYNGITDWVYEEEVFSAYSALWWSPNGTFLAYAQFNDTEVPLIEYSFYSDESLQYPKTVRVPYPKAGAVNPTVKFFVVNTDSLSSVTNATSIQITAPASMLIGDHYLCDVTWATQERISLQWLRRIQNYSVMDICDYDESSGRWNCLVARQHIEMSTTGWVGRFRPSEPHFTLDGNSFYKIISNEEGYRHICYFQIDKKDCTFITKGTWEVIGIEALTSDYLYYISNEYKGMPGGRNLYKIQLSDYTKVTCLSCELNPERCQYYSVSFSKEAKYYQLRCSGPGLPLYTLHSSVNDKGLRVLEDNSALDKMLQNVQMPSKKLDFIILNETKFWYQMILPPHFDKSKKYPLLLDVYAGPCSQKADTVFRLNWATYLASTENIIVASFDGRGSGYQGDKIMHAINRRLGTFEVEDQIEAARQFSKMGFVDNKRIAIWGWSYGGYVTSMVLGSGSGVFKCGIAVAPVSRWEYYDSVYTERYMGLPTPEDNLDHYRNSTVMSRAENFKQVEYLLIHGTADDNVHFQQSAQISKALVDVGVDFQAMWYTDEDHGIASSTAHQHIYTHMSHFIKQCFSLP

Row | SMILES | IC50 [1, 4] [nM] | IC50 [2] [nM] | further results
1 | CCCCCC(=O)N[C@H]1CSCc2cccc(c2)CSC[C@@H](CC(N)=O)NC(=O)[C@H](Cc2cccc3ccccc23)NC(=O)[C@H](CCC(N)=O)NC(=O)[C@H]([C@@H](C)O)NC(=O)[C@@H]2CCCN2C(=O)[C@@H]2CCCN2C1=O [Compound 31] (Hexanoyl-CPPTQ[1Nal][β3hC]-NH2; linker 1-7 via mXylylene) | 1.61 | > 10000 | –
2 | CCCCCC(=O)N[C@H]1CSCc2cccc(c2)CSC[C@@H](CC(=O)NCC2CCCC2)NC(=O)[C@H](Cc2cccc3ccccc23)NC(=O)[C@H](CCC(N)=O)NC(=O)[C@H]([C@@H](C)O)NC(=O)[C@@H]2CCCN2C(=O)[C@@H]2CCCN2C1=O [Compound 35] (Hexanoyl-CPPTQ[1Nal][β3hC]-X2; linker 1-7 via mXylylene) | 6.62 | > 10000 | –
3 | CCCCCC(=O)N[C@H]1CSCc2cccc(c2)CSC[C@@H](C(=O)O)NC(=O)[C@H](CC2CCCCC2)NC(=O)[C@H](CCC(N)=O)NC(=O)[C@H]([C@@H](C)O)NC(=O)[C@@H]2CCCN2C(=O)[C@@H]2CCCN2C1=O [Compound 3, Hex-Cys-Pro-Pro-Thr-Gln-Cha-Cys-OH (Cys bridge DBMB) trifluoroacetate] (Hexanoyl-CPPTQ[Cha]C-OH; linker 1-7 via mXylylene) | – | > 10000 | IC50 [1]: 25.1 nM
4 | CCCCCC(=O)N[C@H]1CSCc2cccc(c2F)CSC[C@@H](C(=O)O)NC(=O)[C@H](Cc2ccccc2)NC(=O)[C@H](CCC(N)=O)NC(=O)[C@H]([C@@H](C)O)NC(=O)[C@@H]2CCCN2C(=O)[C@@H]2CCCN2C1=O [Compound 6, Hex-Cys-Pro-Pro-Thr-Gln-Phe-Cys-OH (Cys bridge 2,6-bis(bromomethyl)fluorobenzene) trifluoroacetate] | 7.25 | > 10000 | –
5 | CCCCCNC(=O)C[C@@H]1CSCc2cccc(c2)CSC[C@H](NC(=O)CCCCC)C(=O)N2CCC[C@H]2C(=O)N2CCC[C@H]2C(=O)N[C@@H]([C@@H](C)O)C(=O)N[C@@H](CCC(N)=O)C(=O)N[C@@H](Cc2cccc3ccccc23)C(=O)N1 [Compound 32] (Hexanoyl-CPPTQ[1Nal][β3hC]-NHPentyl; linker 1-7 via mXylylene) | 3.35 | > 10000 | –
6 | CCCCCC(=O)N[C@H]1CSCc2cccc(c2)CSC[C@@H](CC(=O)Nc2ccccc2)NC(=O)[C@H](Cc2cccc3ccccc23)NC(=O)[C@H](CCC(N)=O)NC(=O)[C@H]([C@@H](C)O)NC(=O)[C@@H]2CCCN2C(=O)[C@@H]2CCCN2C1=O [Compound 36] (Hexanoyl-CPPTQ[1Nal][β3hC]-NHPh; linker 1-7 via mXylylene) | 4.18 | > 10000 | –
7 | CCCCCC(=O)N[C@H]1CSCc2cc(CSCCNC(=O)CN3CCN(CC(=O)O)CCN(CC(=O)O)CCN(CC(=O)O)CC3)cc(c2)CSC[C@@H](CC(=O)O)NC(=O)[C@H](Cc2cccc3ccccc23)NC(=O)[C@H](CCC(N)=O)NC(=O)[C@H]([C@@H](C)O)NC(=O)[C@@H]2CCCN2C(=O)[C@@H]2CCCN2C1=O [Compound 20] (Hexanoyl-CPPTQ[1Nal][β3hC]-OH; linker 1-7 via TBMB(SCH2CH2NH-DOTA)) | – | – | AUC(0-t) [3]: 308 ng·h/mL; Cmax [3]: 772 ng/mL; Vd [3]: 0.52 L/kg; clearance [3]: 10.2 mL/min/kg; half-life [3]: 1.63 h
8 | CCCCCC(=O)N[C@H]1CSCc2cccc(c2F)CSC[C@@H](CNC(=O)C[C@@H](C)NC(=O)[C@H]2CC[C@H](CNC(=O)CN3CCN(CC(=O)O)CCN(CC(=O)O)CCN(CC(=O)O)CC3)CC2)NC(=O)[C@H](Cc2ccccc2)NC(=O)[C@H](CCC(N)=O)NC(=O)[C@H]([C@@H](C)O)NC(=O)[C@@H]2CCCN2C(=O)[C@@H]2CCCN2C1=O [Compound 22] | – | – | AUC(0-t) [3]: 740 ng·h/mL; Cmax [3]: 1120 ng/mL; Vd [3]: 1.18 L/kg; clearance [3]: 4.33 mL/min/kg; half-life [3]: 7.93 h
9 | CCCCCC(=O)N[C@H]1CSCc2cccc(c2)CSC[C@@H](CC(=O)NCc2ccncc2)NC(=O)[C@H](Cc2cccc3ccccc23)NC(=O)[C@H](CCC(N)=O)NC(=O)[C@H]([C@@H](C)O)NC(=O)[C@@H]2CCCN2C(=O)[C@@H]2CCCN2C1=O [Compound 37] (Hexanoyl-CPPTQ[1Nal][β3hC]-{NH(4-picolyl)}; linker 1-7 via mXylylene) | 4.67 | > 10000 | –
10 | CCCC[C@H](N)C(=O)N[C@H]1CSCc2cccc(c2)CSC[C@@H](CC(=O)O)NC(=O)[C@H](Cc2cccc3ccccc23)NC(=O)[C@H](CCC(N)=O)NC(=O)[C@H]([C@@H](C)O)NC(=O)[C@@H]2CCCN2C(=O)[C@@H]2CCCN2C1=O [Compound 39] (H-[Nle]CPPTQ[1Nal][β3hC]-OH; linker 2-8 via mXylylene) | 5.31 | > 10000 | –
11 | CCCCCC(=O)N[C@H]1CSCc2cccc(c2)CSC[C@@H](CC(=O)O)NC(=O)[C@H](Cc2ccccc2)NC(=O)[C@H](CCC(N)=O)NC(=O)[C@H]([C@@H](C)O)NC(=O)[C@@H]2CCCN2C(=O)[C@@H]2CCCN2C1=O [Compound 2, Hex-Cys-Pro-Pro-Thr-Gln-Phe-beta-HomoCys-OH (Cys bridge DBMB) trifluoroacetate] | – | > 10000 | IC50 [1]: 4.24 nM
12 | CCCCCC(=O)N[C@H]1CSCc2nc(CSCCNC(=O)CN3CCN(CC(=O)O)CCN(CC(=O)O)CCN(CC(=O)O)CC3)nc(n2)CSC[C@@H](C(=O)O)NC(=O)[C@H](Cc2ccccc2)NC(=O)[C@H](CCC(N)=O)NC(=O)[C@H]([C@@H](C)O)NC(=O)[C@@H]2CCCN2C(=O)[C@@H]2CCCN2C1=O [Compound 7, Hex-Cys-Pro-Pro-Thr-Gln-Phe-Cys-OH (Cys bridge 2,4,6-tribromomethyl-1,3,5-triazine (DOTA-AET)) trifluoroacetate] | 1.53 | > 10000 | –
13 | CCCCCC(=O)N[C@H]1CSCc2cc(CSCCNC(=O)CN3CCN(CC(=O)O)CCN(CC(=O)O)CCN(CC(=O)O)CC3)cc(c2)CSC[C@@H](CC(=O)O)NC(=O)[C@H](Cc2ccccc2)NC(=O)[C@H](CCC(N)=O)NC(=O)[C@H]([C@@H](C)O)NC(=O)[C@@H]2CCCN2C(=O)[C@@H]2CCCN2C1=O [Compound 8, Hex-Cys-Pro-Pro-Thr-Gln-Phe-beta-HomoCys (Cys bridge TBMB (DOTA-AET)) trifluoroacetate] | – | > 10000 | IC50 [1]: 1.18 nM
14 | CCCCCC(=O)N[C@H]1CSCc2cccc(c2)CSC[C@@H](C(=O)O)NC(=O)[C@H](Cc2ccccc2)NC(=O)[C@H](CCC(N)=O)NC(=O)[C@H]([C@@H](C)O)NC(=O)[C@@H]2CCCN2C(=O)[C@@H]2CCCN2C1=O [Compound 3BP-4186, reference compound] | – | > 10000 | IC50 [1]: 98.8 nM
15 | CCCCCC(=O)N[C@H]1CSCc2cccc(c2)CSC[C@@H](CC(=O)NC2CCCC2)NC(=O)[C@H](Cc2cccc3ccccc23)NC(=O)[C@H](CCC(N)=O)NC(=O)[C@H]([C@@H](C)O)NC(=O)[C@@H]2CCCN2C(=O)[C@@H]2CCCN2C1=O [Compound 34] (Hexanoyl-CPPTQ[1Nal][β3hC]-NHcPent; linker 1-7 via mXylylene) | 5.92 | > 10000 | –
